Source: PMC11877502, “Cytotoxic Stilbenoids, Hetero- and Homodimers of Homoisoflavonoids from Prospero autumnale” (Journal of Natural Products, 2025)
Where two headings read alike, the source gives them in different places.

What was measured:
DU145 [1] = test: MTS cytotoxicity assay; type: cell-based; settings: Homo sapiens, DU-145, 48 h, triplicate
Experimental: (§1) Stock solutions of extracts and compounds were prepared by dissolving in DMSO (Sigma-Aldrich, no. D2650) at the concentrations of 100 mg/mL and 100 mM for extracts and compounds, respectively. […] Untreated cells were used as a control, while plain culture medium was used as a blank. Viability was determined with MTS Assay (Abcam #ab197010) according to the manufacturer’s instructions. Absorbance at 490 nm was measured with a spectrophotometer (Epoch, BioTek Instruments). Relative viability ratios were calculated with the equation given below, and IC50 values were determined in GraphPad Prism (version 8.0). [drawing 2]

HCT116 [2] = test: MTS cytotoxicity assay; type: cell-based; settings: Homo sapiens, HCT-116, 48 h, triplicate
Experimental: as §1

HEP3B [3] = test: MTS cytotoxicity assay; type: cell-based; settings: Homo sapiens, 48 h, triplicate
Experimental: as §1

HEPG2 [4] = test: MTS cytotoxicity assay; type: cell-based; settings: Homo sapiens, 48 h, triplicate, read-out: IC50 ± SEM HEPG2
Experimental: as §1

LoVo [5] = test: MTS cytotoxicity assay; type: cell-based; settings: Homo sapiens, 48 h, triplicate, read-out: IC50 ± SEM LoVo
Experimental: as §1

MCF7 [6] = test: MTS cytotoxicity assay; type: cell-based; settings: Homo sapiens, 48 h, triplicate
Experimental: as §1

MDA-MB-231 [7] = test: MTS cytotoxicity assay; type: cell-based; settings: Homo sapiens, 48 h, triplicate
Experimental: as §1

PC3 [8] = test: MTS cytotoxicity assay; type: cell-based; settings: Homo sapiens, PC-3, 48 h, triplicate
Experimental: as §1

[9] = test system: L929 nontumor mouse fibroblast cell line; test: MTS cytotoxicity assay, nontumor cell line; type: cell-based; settings: 48 h, triplicate
Experimental: as §1

[10] = test system: human cancer cell lines (HCT116, LoVo, DU145, PC3, HEP3B, HEPG2, MCF7, MDA-MB-231); test: MTS cytotoxicity assay, panel statements; type: cell-based; settings: 48 h, span over compounds and cell lines, read-out: IC50 toward one or more cancer cell lines
Experimental: as §1

DU145 [11] = test: Annexin V/propidium iodide staining; type: cell-based, human; settings: 48 h at IC50 concentration, flow cytometry
Experimental: (§2) Apoptosis, necrosis, and viability were analyzed by Annexin V-FITC and […] (PI) staining. For this purpose, cells were seeded at 5 × 10^5 cells per 60 mm dish and incubated overnight to allow attachment. Then, cells were treated with the selected compounds (1, 2, 4, and 10) for 48 h at respective IC50 concentrations. For flow cytometric analysis, cells were detached with Trypsin-EDTA solution (Thermo Fisher Scientific #25200056), washed with Dulbecco’s phosphate buffered saline (DPBS, Thermo Fisher Scientific #14190094) solution, and suspended in 1 mL of ice-cold Annexin V Binding Buffer (BioLegend #422201). Cells were then stained with 1 μL of Annexin V-FITC (Biovision #1001) and 1 μL PI (Thermo Fisher Scientific # P1304MP, diluted to 250 μg/mL in DPBS) by incubating cells on ice for 15 min in the dark. Cells were then immediately analyzed on a Beckman Coulter DxFLEX flow cytometry system. Each analysis was performed in triplicate, and 25 × 10^3 events were counted for each tube. Evaluations were done with CytEXPERT software.

PC3 [12] = test: Annexin V/propidium iodide staining; type: cell-based, human; settings: 48 h at IC50 concentration, flow cytometry
Experimental: as §2

LoVo [13] = test: Annexin V/propidium iodide staining; type: cell-based, human; settings: 48 h at IC50 concentration, flow cytometry
Experimental: (§3) Apoptosis, necrosis, and viability were analyzed by Annexin V-FITC and […] (PI) staining. For this purpose, cells were seeded at 5 × 10^5 cells per 60 mm dish and incubated overnight to allow attachment. […] Cells were then immediately analyzed on a Beckman Coulter DxFLEX flow cytometry system. Each analysis was performed in triplicate, and 25 × 10^3 events were counted for each tube. Evaluations were done with CytEXPERT software.

LoVo [14] = test: DNA content (cell cycle) analysis; type: cell-based, human; settings: 48 h, DNA content by flow cytometry
Experimental: (§4) To investigate cell cycle progression, cells were seeded as 5 × 10^5 cells per 60 mm dish and incubated overnight for attachment. After incubating with the selected compounds for 48 h, cells were detached with Trypsin-EDTA, washed once with DPBS, and fixed with ice-cold 70% EtOH by storing tubes at 4 °C for an hour. Then, EtOH was discarded by centrifuging cells, and the pellet was suspended in 500 μL cell cycle kit reagent (Beckman Coulter #C03551). Tubes were incubated at room temperature under the dark for 30 min. The experiment was done on triplicate, and 5 × 10^4 cells per test were acquired at a medium flow rate with the Beckman Coulter DxFLEX flow cytometry system. Analyses were performed with ModFit LT version 4.0.

PC3 [15] = test: DNA content (cell cycle) analysis; type: cell-based, human; settings: 48 h, DNA content by flow cytometry
Experimental: as §4

MDA-MB-231 [16] = test: Annexin V/propidium iodide staining; type: cell-based, human; settings: 48 h at IC50 concentration, flow cytometry
Experimental: as §3

MDA-MB-231 [17] = test: DNA content (cell cycle) analysis; type: cell-based, human; settings: 48 h, DNA content by flow cytometry
Experimental: as §4

HEP3B [18] = test: Annexin V/propidium iodide staining; type: cell-based, human; settings: 48 h at IC50 concentration, flow cytometry
Experimental: as §2

HEP3B [19] = test: DNA content (cell cycle) analysis; type: cell-based, human; settings: 48 h, DNA content by flow cytometry
Experimental: as §4

HCT116 [20] = test: Annexin V/propidium iodide staining; type: cell-based, human; settings: 48 h at IC50 concentration, flow cytometry
Experimental: as §2

HEPG2 [21] = test: Annexin V/propidium iodide staining; type: cell-based, human; settings: 48 h at IC50 concentration, flow cytometry
Experimental: as §2

MCF7 [22] = test: Annexin V/propidium iodide staining; type: cell-based, human; settings: 48 h at IC50 concentration, flow cytometry
Experimental: as §2

HCT116 [23] = test: DNA content (cell cycle) analysis; type: cell-based, human; settings: 48 h, DNA content by flow cytometry
Experimental: as §4

HEPG2 [24] = test: DNA content (cell cycle) analysis; type: cell-based, human; settings: 48 h, DNA content by flow cytometry
Experimental: as §4

MCF7 [25] = test: DNA content (cell cycle) analysis; type: cell-based, human; settings: 48 h, DNA content by flow cytometry
Experimental: as §4

[26] = read-out: IC50 ± SEM MDA-MB-231

Compound | IC50 (DU145 [1]; read-out: IC50 ± SEM DU145) [µM] | IC50 (HCT116 [2]; read-out: IC50 ± SEM HCT116) [µM] | IC50 (HEP3B [3]; read-out: IC50 ± SEM HEP3B) [µM] | IC50 (HEPG2 [4]) [µM] | IC50 (LoVo [5]) [µM] | IC50 (MCF7 [6]; read-out: IC50 ± SEM MCF7) [µM] | IC50 (MDA-MB-231 [7]; [26]) [µM] | IC50 (PC3 [8]; read-out: IC50 ± SEM PC3) [µM] | IC50 ([9]; read-out: IC50 ± SEM L929) [µM] | IC50 [10] [µM] | apoptosis/necrosis vs control, LoVo (LoVo [13]) | cell cycle effect, LoVo (LoVo [14]) | further results
COc1cc(/C=C/c2ccc(O)cc2)cc(O)c1C [Compound 1, 3,4′-dihydroxy-4-methyl-5-methoxystilbene] | 29.7 ± 4.4 | 54.6 ± 5.5 | 59.8 ± 4.2 | 37.6 ± 5.3 | 10.6 ± 0.5 | 53.5 ± 9.1 | 79.6 ± 5.6 | 21.3 ± 2.1 | 33.7 ± 3.9 | 8.2 to 37.6 | apoptosis along with necrosis | S phase arrest | apoptosis/necrosis vs control, DU145 (DU145 [11]): promoting apoptosis and necrosis; apoptosis/necrosis vs control, PC3 (PC3 [12]): promoting apoptosis and necrosis; cell cycle effect, PC3 (PC3 [15]): S phase arrest
COc1cc(O)cc(/C=C/c2ccc(O)cc2)c1 [Compound 2, pinostilbene] | > 100 | 71.3 ± 12.6 | 93.5 ± 8.9 | 51.8 ± 10 | 8.2 ± 0.4 | 95.7 ± 15 | 23.3 ± 1.4 | 88.7 ± 10.9 | 13.4 ± 1.7 | 8.2 to 37.6 | apoptosis along with necrosis | S phase arrest | apoptosis/necrosis vs control, MDA-MB-231 (MDA-MB-231 [16]): more efficient in inducing apoptosis compared to 10; cell cycle effect, MDA-MB-231 (MDA-MB-231 [17]): S phase arrest
COc1cc(/C=C/c2cc(O)c(C)c(O)c2)ccc1O [Compound 3, scillabene A] | > 100 | > 100 | 82.7 ± 3.9 | > 100 | 83.4 ± 3.9 | > 100 | > 100 | > 100 | > 100 | – | – | – | –
O=C1/C(=C/c2ccc(O)cc2)COc2cc(O)cc(O)c21 [Compound 4, (E)-4′-O-demethyleucomin] | > 100 | 45.8 ± 8.4 | 33.7 ± 3 | > 100 | 40.4 ± 2.9 | 95.3 ± 4.7 | 77.5 ± 3.9 | 88.1 ± 8.6 | > 100 | 8.2 to 37.6 | – | – | apoptosis/necrosis vs control, HEP3B (HEP3B [18]): significantly increased early apoptosis along with necrosis; cell cycle effect, HEP3B (HEP3B [19]): G2/M phase arrest
COc1c(O)c(OC)c2c(c1O)OC[C@@H](Cc1ccc(O)cc1)C2=O [Compound 7, 3R-(4′-hydroxybenzyl)-6,8-dihydroxy-5,7-dimethoxy-4-chromanone] | > 100 | > 100 | > 100 | > 100 | > 100 | > 100 | > 100 | > 100 | > 100 | – | – | – | –
COc1ccc(C(c2c(O)cc3c(c2O)C(=O)/C(=C/c2ccc(O)cc2)CO3)c2coc3cc(O)cc(O)c3c2=O)cc1 (stereo not shown) [Compound 9, prosperin B] | > 100 | 75.8 ± 8 | > 100 | > 100 | > 100 | > 100 | > 100 | > 100 | > 100 | – | – | – | –
COc1ccc([C@H]2c3c(/C=C/c4ccc(O)cc4)cc(OC)c(C)c3O[C@@H]3Oc4cc(O)cc(O)c4C(=O)[C@@H]32)cc1 [Compound 10, prosperin C] | 40.1 ± 2.8 | 19.3 ± 3.1 | 59.9 ± 6.9 | 24 ± 2.2 | 16.7 ± 0.8 | 25.2 ± 5.1 | 25.5 ± 2.4 | 36.7 ± 2.5 | 29.7 ± 1.7 | 8.2 to 37.6 | apoptosis along with necrosis | G0/G1 phase arrest | apoptosis/necrosis vs control, HCT116 (HCT116 [20]): significant increase in apoptosis; apoptosis/necrosis vs control, HEPG2 (HEPG2 [21]): higher late apoptosis and necrosis; apoptosis/necrosis vs control, MCF7 (MCF7 [22]): increased apoptosis and necrosis; apoptosis/necrosis vs control, MDA-MB-231 (MDA-MB-231 [16]): increased apoptosis and necrosis; cell cycle effect, HCT116 (HCT116 [23]): G0/G1 phase arrest; cell cycle effect, HEPG2 (HEPG2 [24]): slight S phase decrease; cell cycle effect, MCF7 (MCF7 [25]): G0/G1 phase arrest; cell cycle effect, MDA-MB-231 (MDA-MB-231 [17]): G0/G1 phase arrest
COc1cccc2c1C(=O)c1c(O)c3c(c(O)c1C2=O)C[C@@](O)(C(=O)CO)C[C@@H]3O[C@H]1C[C@H](N)[C@H](O)[C@H](C)O1 [doxorubicin, reference compound] | 5.9 ± 0.4 | 0.9 ± 0.1 | 1.1 ± 0.1 | – | 2.4 ± 0.2 | 2.3 ± 0.3 | 2.3 ± 0.3 | 0.9 ± 0.1 | > 100 | – | – | – | IC50 (DU145 [1]; read-out: IC50 ± SEM DU145, extract/fraction): 5.93 ± 0.38 µg/mL; IC50 (HCT116 [2]; read-out: IC50 ± SEM HCT116, extract/fraction): 0.86 ± 0.14 µg/mL; IC50 (HEP3B [3]; read-out: IC50 ± SEM HEP3B, extract/fraction): 1.1 ± 0.07 µg/mL; IC50 (MCF7 [6]; read-out: IC50 ± SEM MCF7, extract/fraction): 2.32 ± 0.28 µg/mL; IC50 (MDA-MB-231 [7]; read-out: IC50 ± SEM MDA-MB-231, extract/fraction): 2.33 ± 0.33 µg/mL; IC50 (PC3 [8]; read-out: IC50 ± SEM PC3, extract/fraction): 0.88 ± 0.08 µg/mL; IC50 ([9]; read-out: IC50 ± SEM L929, extract/fraction): > 100 µg/mL
